Article PMC9405102, “Targeted Modification and Structure-Activity Study of GL-29, an Analogue of the Antimicrobial Peptide Palustrin-2ISb” (Antibiotics, 2022)
≈ marks a conversion by molar mass, not a printed value. Read-outs that look alike come from different tables or passages of the source. Where a SMILES comes first, the peptide text is derived from it. Where no end group is shown, it is not given here.

Tests used:
[1] = system: Escherichia coli (E. coli); parameters: method as in PMID 21911019; conditions: cited from earlier work
horse erythrocytes = assay type: cell-based; conditions: red cells of horse, 2 h
Experimental: The haemolysis assays were performed by incubating prewashed erythrocyte suspension obtained from fresh defibrinated horse blood (TCS Biosciences Ltd., Buckingham, UK) with a range of peptides at final concentrations from 512 to 1 μM, for 2 h at 37 °C. The red cell suspensions were washed with phosphate-buffered saline (PBS) until the supernatant was clear and then diluted with PBS to form a 2% cell suspension. Peptides were 2-fold diluted by the 2% cell suspension to reach the final concentration range from 512 to 1 μM. The haemolysis of the cell suspensions with either 1% (v/v) Triton X-100 or PBS, were considered as positive controls and negative controls, respectively. After incubation, the extent of haemolysis was determined by measuring the absorbance of the supernatant from each sample at 570 nm with a Synergy HT plate reader (BioTek, USA).
(§1) Data were analysed using Prism (Version 8.2.1; GraphPad Software, Inc, San Diego, CA, USA). Error bars in the graphs represented standard errors of means (SEM) of nine repeats from three independent tests. The statistical significance was calculated using two-way ANOVA and is indicated as ns (non-significant difference), * (p < 0.05), ** (p < 0.01), *** (p < 0.001), ****(p < 0.0001). The HC10, HC50 and IC50 values were calculated using the online tool AAT Bioquest (https://www.aatbio.com/index.html, accessed on 6 May 2022).

C. albicans = system: C. albicans; parameters: method as in PMID 21911019; conditions: C. albicans; cited from earlier work
E. coli (ATCC BAA-2340) = assay type: cell-based, Escherichia coli
Experimental: The antimicrobial activity of the peptides was determined through the minimum inhibitory concentrations (MICs) and the minimum bactericidal concentration (MBCs) using the broth-dilution method in a 96-well plate, as described in the previous study. Six bacteria, including the Gram-positive bacteria, S. aureus (ATCC CRM 6538), MRSA (ATCC CRM 12493) and E. faecalis (NCTC 12697), the Gram-negative bacteria, E. coli (ATCC CRM 8739), K. pneumoniae (ATCC CRM 43816) and P. aeruginosa (ATCC CRM 9027), the yeast, C. albicans (ATCC CRM 10231) and clinical isolates, S. aureus (B042 V2E1 A), MRSA (B038 V1S1 A), E. coli (ATCC BAA-2340) and K. pneumoniae (ATCC BAA-1705) were used in these assays to evaluate the antimicrobial potency of the two peptides by determining their MICs and MBCs. All bacteria were cultured in MHB and the yeast, C. albicans was cultured in YPD broth overnight. Then, the microorganisms were sub-cultured and diluted to the final concentration of 2 × 10^5 CFU/mL to 5 × 10^5 CFU/mL. The Norfloxacin and amphotericin B were used as positive controls for the bacteria and yeast, respectively. The assay was repeated three times, with five replicates at each time.

[2] = system: methicillin-resistant S. aureus (MRSA); parameters: method as in PMID 21911019; conditions: cited from earlier work
[3] = system: Staphylococcus aureus (S. aureus); parameters: method as in PMID 21911019; conditions: cited from earlier work
[4] = system: human keratinocyte cell line, HaCaT; assay type: cell-based; conditions: 24 h
Experimental: (§2) The proliferative inhibition effect of GL-29 and its analogues were assessed by MTT assay as described in a previous study. HaCaT cell line (human keratinocytes) and four cancer cell lines, U251MG (human glioblastoma astrocytoma cell line), HCT116 (human colon cancer cell line), H157 (human non-small lung cancer cell line) and H838 (human lung carcinoma cancer cell line), were used in this assay. A total of 8000 cells/per well were seeded in the 96-well plate for 24 h and then treated with peptides at the concentration from 100 μM to 100 nM for 24 h. In this assay, 1% Triton X-100 and PBS were set as a positive and negative control, respectively. After which, the formazan was dissolved in DMSO and the OD value was detected by use of a Synergy HT plate reader (BioTek, Minneapolis, MN, USA) at λ = 570 nm.
as §1

U251MG = experiment: MTT antiproliferative assay; assay type: cell-based, human
Experimental: as §2, §1

H838 = experiment: MTT antiproliferative assay; assay type: cell-based, human
Experimental: as §2, §1

HCT116 = experiment: MTT antiproliferative assay; assay type: cell-based, human
Experimental: as §2, §1

[5] = system: Galleria mellonella larvae (waxworms); experiment: Toxicity of peptide in larvae in vivo; conditions: uninfected larvae
Experimental: In this assay, Galleria mellonella larvae (waxworms) (Livefood UK Ltd., Rooks Bridge, UK) were used as an infection model to investigate the antimicrobial potency of peptides against S. aureus, which was described in a previous study in detail (Yuan et al., 2019). The larvae, weights between 225 mg and 275 mg, were selected, and nine larvae were stored in a separate Petri dish as a group and they were divided into several groups. Then, 10 µL of the peptide solution at final concentrations of 8 µM and 16 µM, respectively, and 10 µL of PBS were injected into larvae to test the toxicity of peptides and PBS solution. Afterwards, 10 μL of the bacterial suspension in PBS (5 × 10^7 CFU/mL) were injected into larvae. All the infected larvae were ensured to be alive after 2 h of the injection, followed by the treatment with 10 μL of the peptide solution to reach final concentrations of 2, 4 and 8 μM, respectively. The negative control was treated with the same volume of PBS, and the positive control was dosed with the same volume of 20 mg/kg vancomycin (Sigma-Aldrich, UK). The number of living larvae was counted every 24 h for 5 days, except the first day of 12 h.

H157 = experiment: MTT antiproliferative assay; assay type: cell-based, human; conditions: 24 h
Experimental: as §2, §1

[6] = KPC-producing resistant strain E. coli (ATCC BAA-2340)

Compound	MIC [1]	HC10 (horse erythrocytes)	HC50 (horse erythrocytes)	MIC (C. albicans)	MBC (E. coli (ATCC BAA-2340); ATCC BAA-2340)	MIC (E. coli (ATCC BAA-2340); ATCC BAA-2340)	MIC [2]	MIC [3]	IC50 [4]	inhibition of proliferative activity (U251MG; 100 µM (highest concentration))	inhibition of proliferative activity (H838; H838, 100 µM (highest concentration))	inhibition of proliferative activity (HCT116; HCT116, 100 µM (highest concentration))	MBC (E. coli (ATCC BAA-2340); [6])	MIC (E. coli (ATCC BAA-2340); [6])	toxicity against larvae ([5]; 2 × MIC (20 mg/kg))	toxicity against larvae ([5]; 4 × MIC (40 mg/kg))	IC50 (H157)	IC50 (U251MG; MTT, 24 h)	IC50 (H838; H838, MTT, 24 h)	IC50 (HCT116; HCT116, MTT, 24 h)
CC[C@H](C)[C@H](NC(=O)[C@H](CCCCN)NC(=O)[C@@H](NC(=O)[C@H](CO)NC(=O)[C@H](CC(N)=O)NC(=O)[C@H](Cc1c[nH]c2ccccc12)NC(=O)[C@H](CC(C)C)NC(=O)CN)[C@@H](C)CC)C(=O)N[C@@H](C)C(=O)NCC(=O)N[C@@H](CCCCN)C(=O)N[C@@H](CCCCN)C(=O)N[C@@H](CC(C)C)C(=O)N[C@@H](Cc1ccccc1)C(=O)N[C@H](C(=O)N[C@@H](CC(N)=O)C(=O)N[C@H](C(=O)N[C@@H](CC(C)C)C(=O)N[C@@H](CC(=O)O)C(=O)N[C@@H](CCCCN)C(=O)N[C@H](C(=O)N[C@@H](CCCNC(=N)N)C(=O)N[C@H]1CSSC[C@@H](C(=O)O)NC(=O)CNC(=O)CNC(=O)[C@H](C)NC(=O)[C@H](C(C)C)NC(=O)[C@H](CCCCN)NC1=O)[C@@H](C)CC)C(C)C)C(C)C [GL-29] (HELM PEPTIDE1{G.L.W.N.S.I.K.I.A.G.K.K.L.F.V.N.V.L.D.K.I.R.C.K.V.A.G.G.C}$PEPTIDE1,PEPTIDE1,23:R3-29:R3$$$V2.0; N-terminus and C-terminus assumed; bridges inferred)	1.6 µM (≈ 5.01 µg/mL)	5.86 µM	33.03 µM	100 µM (≈ 313 µg/mL)	4 µM (≈ 12.5 µg/mL)	2 µM (≈ 6.26 µg/mL)	12.5 µM (≈ 39.1 µg/mL)	6.3 µM (≈ 19.7 µg/mL)	5.05 µM											
GLWNSIKIA-NH2 [GL-9, GLWNSIKIA-NH2]										20–40%	20–40%	20–40%	>512 µM	>512 µM						
GLWNSIKIAGKKLFVNVLDKIR-NH2 [GL-22]		87.304 µM	254.11 µM		4 µM	2 µM			38.9 µM						no toxicity	high toxicity	9.36 µM	40.6 µM	25.2 µM	129 µM
